Values quoted from earlier work, collected in patent US20130302415A1, “Pharmaceutical Composition” (CIPLA Limited, priority 2010, published 2013).

Conditions: class II = low solubility, high permeability

Biopharmaceutical Classification System class: class II
SMILES: O=C1Nc2ccc(Cl)cc2[C@@](C#CC2CC2)(C(F)(F)F)O1 [Efavirenz, (S)-6-chloro-4-cyclopropylethynyl-4-trifluoromethyl-1,4-dihydro-2H-3,1-benzoxazin-2-one]
